Experimental data taken from paper PMC10800876, “Evaluation of proline-rich antimicrobial peptides as potential lead structures for novel antimycotics against Cryptococcus neoformans” (Frontiers in Microbiology, 2024).
Values after ≈ are worked out from the molar mass of the structure shown. Where two headings read alike, the source gives them in different places. Non-standard residues stand in square brackets, D forms with d. Residues, ends and D or L forms follow the SMILES beside them. *: point of attachment. Orn(α-tetramethylguanidino) = CN(C)C(=N[C@@H](CCCN)C(=O)*)N(C)C; Orn = NCCC[C@H](N)C(=O)O

What was measured:
[1] = system: C. neoformans strains 1841, H99, and KN99α; assay: Broth microdilution assay (MIC); assay type: cell-based, Cryptococcus neoformans
[2] = system: C. neoformans 1841 (serotype D); conditions: for MIC (mg/L) 1841 24 h / MIC (mg/L) 1841 48 h: 50% SAB in phosphate buffer
[3] = system: C. neoformans H99 (serotype A)
[4] = system: C. neoformans KN99α (serotype A, mating type MATα)
[5] = strains 1841, H99, and KN99α, 24 h
[6] = 1841 (serotype D, 24 h, pH 7.5)
[7] = 1841 (serotype D, 48 h, pH 7.5)
[8] = broth microdilution, 30°C, read after 24 h, n = 6
[9] = broth microdilution, 30°C, read after 48 h, n = 6
[10] = KN99α (serotype A, mating type MATα, 24 h)
[11] = KN99α (serotype A, mating type MATα, 48 h)
[12] = broth microdilution, 50% SAB in phosphate buffer pH 7.5, 5 × 10^4 CFU/mL, 30°C, read after 24 h, mean of six replicates (n = 6)
[13] = broth microdilution, 50% SAB in phosphate buffer pH 7.5, 5 × 10^4 CFU/mL, 30°C, read after 48 h, n = 6
[14] = broth microdilution, 50% SAB in phosphate buffer, 30°C, read after 24 h, n = 6
[15] = broth microdilution, 50% SAB in phosphate buffer, 30°C, read after 48 h, n = 6

| Compound | MIC [1, 5] [µM] | MIC (μmol/L) 1841 24 h [2, 6] [µmol/L] | MIC (μmol/L) 1841 48 h [2, 7] [µmol/L] | MIC (mg/L) 1841 24 h [2, 8] [mg/L] | MIC (mg/L) 1841 48 h [2, 9] [mg/L] | MIC (μmol/L) H99 24 h ([3]; H99 (serotype A, 24 h)) [µmol/L] | MIC (μmol/L) H99 48 h ([3]; H99 (serotype A, 48 h)) [µmol/L] | MIC (μmol/L) KN99α 24 h [4, 10] [µmol/L] | MIC (μmol/L) KN99α 48 h [4, 11] [µmol/L] | MIC (μmol/L) 1841 24 h [2, 12] [µmol/L] | MIC (μmol/L) 1841 48 h [2, 13] [µmol/L] | also measured |
| --- | --- | --- | --- | --- | --- | --- | --- | --- | --- | --- | --- | --- |
| CC[C@H](C)[C@H](NC(=O)[C@H](Cc1ccc(O)cc1)NC(=O)[C@@H](NC(=O)[C@@H]1CCCN1C(=O)[C@H](CCCNC(=N)N)NC(=O)[C@H](CC(N)=O)NC(=O)[C@H](CC(N)=O)NC(=O)[C@H](CCCN)N=C(N(C)C)N(C)C)C(C)C)C(=O)N1CCC[C@H]1C(=O)N[C@@H](CCCNC(=N)N)C(=O)N1CCC[C@H]1C(=O)N[C@@H](CCCNC(=N)N)C(=O)N1CCC[C@H]1C(=O)N1CCC[C@H]1C(=O)N[C@@H](Cc1c[nH]cn1)C(=O)N1CCC[C@H]1C(=O)N[C@@H](CCCNC(=N)N)C(=O)N[C@@H](CC(C)C)C(=O)O [Api137] ({Orn(α-tetramethylguanidino)}-NNRPVYIPRPRPPHPRL-OH; N-terminus and C-terminus assumed) | 14 to 28 | 14 (≈ 32.1 µg/mL) | 28 (≈ 64.2 µg/mL) | 32 (≈ 14 µM) | 64 (≈ 27.9 µM) | 14 (≈ 32.1 µg/mL) | 28 (≈ 64.2 µg/mL) | 14 to 28 | 28 to 56 |  |  | MIC [1]: 32 to 64 µg/mL; MIC (mg/L) KN99α 24 h [4, 10]: 32 to 64 mg/L; MIC (mg/L) KN99α 48 h [4, 11]: 64 to 128 mg/L |
| CC[C@H](C)[C@H](NC(=O)[C@H](CCCN)NC(=O)[C@@H](NC(=O)[C@@H](N)CCCN)[C@@H](C)CC)C(=O)N[C@@H](CCCN)C(=O)N[C@@H](CCCNC(=N)N)C(=O)N1CCC[C@H]1C(=O)N[C@H](C(=O)N[C@@H](Cc1ccc(O)cc1)C(=O)N[C@@H](CCCN)C(=O)N1CCC[C@H]1C(=O)N[C@@H](CCCNC(=N)N)C(=O)N1CCC[C@H]1C(=O)N[C@@H](CCCNC(=N)N)C(=O)N1CCC[C@H]1C(=O)N1CCC[C@H]1C(=O)N[C@@H](Cc1c[nH]cn1)C(=O)N1CCC[C@H]1C(=O)N[C@@H](CCCNC(=N)N)C(=O)N[C@@H](CCCNC(=N)N)C(=O)O)C(C)C [Api822] (H-[Orn]I[Orn]I[Orn]RPVY[Orn]PRPRPPHPRR-OH) | 1.6 to 6.7 | 3.2 (≈ 7.88 µg/mL) | 3.2 (≈ 7.88 µg/mL) |  |  | 3.2 (≈ 7.88 µg/mL) | 3.2 (≈ 7.88 µg/mL) | 3.2 (≈ 7.88 µg/mL) | 3.2 (≈ 7.88 µg/mL) |  |  |  |
| CC[C@H](C)[C@H](NC(=O)[C@H](Cc1ccc(O)cc1)NC(=O)[C@@H](NC(=O)[C@@H]1CCCN1C(=O)[C@H](CCCNC(=N)N)NC(=O)[C@H](CC(N)=O)NC(=O)[C@H](CC(N)=O)NC(=O)CN)C(C)C)C(=O)N1CCC[C@H]1C(=O)N[C@@H](CCC(N)=O)C(=O)N1CCC[C@H]1C(=O)N[C@@H](CCCNC(=N)N)C(=O)N1CCC[C@H]1C(=O)N1CCC[C@H]1C(=O)N[C@@H](Cc1c[nH]cn1)C(=O)N1CCC[C@H]1C(=O)N[C@@H](CCCNC(=N)N)C(=O)N[C@@H](CC(C)C)C(=O)O [Apidaecin 1b, reference compound] (H-GNNRPVYIPQPRPPHPRL-OH) | > 61 | > 61 | > 61 |  |  | > 61 | > 61 | > 61 | > 61 |  |  |  |
| CC[C@H](C)[C@H](NC(=O)[C@H](CCCCN)NC(=O)[C@H](CCC(=O)O)NC(=O)CNC(=O)CNC(=O)[C@H](CCCCN)NC(=O)[C@H](CCCNC(=N)N)NC(=O)[C@H](CC(C)C)NC(=O)[C@H](CC(C)C)NC(=O)CN)C(=O)NCC(=O)N[C@@H](CCC(=O)O)C(=O)N[C@@H](CCCCN)C(=O)N[C@@H](CC(C)C)C(=O)N[C@@H](CCCCN)C(=O)N[C@@H](CCCCN)C(=O)N[C@H](C(=O)NCC(=O)N[C@@H](CCC(N)=O)C(=O)N[C@@H](CCCCN)C(=O)N[C@H](C(=O)N[C@@H](CCCCN)C(=O)N[C@@H](CC(N)=O)C(=O)N[C@@H](Cc1ccccc1)C(=O)N[C@@H](Cc1ccccc1)C(=O)N[C@@H](CCC(N)=O)C(=O)N[C@@H](CCCCN)C(=O)N[C@@H](CC(C)C)C(=O)N[C@H](C(=O)N1CCC[C@H]1C(=O)N[C@@H](CCC(N)=O)C(=O)N1CCC[C@H]1C(=O)N[C@@H](CCC(=O)O)C(=O)N[C@@H](CCC(N)=O)C(=O)O)C(C)C)[C@@H](C)CC)[C@@H](C)CC [CRAMP, reference compound] (H-GLLRKGGEKIGEKLKKIGQKIKNFFQKLVPQPEQ-OH) |  | 2.1 (≈ 8.15 µg/mL) | 2.1 (≈ 8.15 µg/mL) |  |  | 2.1 (≈ 8.15 µg/mL) | 2.1 (≈ 8.15 µg/mL) | 2.1 (≈ 8.15 µg/mL) | 2.1 (≈ 8.15 µg/mL) |  |  | MIC [1]: 2.1 µM |
| CC[C@H](C)[C@H](NC(=O)[C@@H]1CCCN1C(=O)[C@H](CCCNC(=N)N)NC(=O)[C@@H]1CCCN1C(=O)[C@H](Cc1c[nH]cn1)NC(=O)[C@H](CO)NC(=O)[C@@H](NC(=O)[C@@H]1CCCN1C(=O)[C@H](CCCNC(=N)N)NC(=O)[C@@H]1CCCN1C(=O)[C@H](CO)NC(=O)[C@H](Cc1ccc(O)cc1)NC(=O)[C@@H]1CCCN1C(=O)[C@H](CCCNC(=N)N)NC(=O)[C@@H]1CCCN1C(=O)[C@H](CCCCN)NC(=O)CN)[C@@H](C)O)C(=O)N[C@@H](CCCNC(=N)N)C(=O)N[C@H](C(=O)O)C(C)C [Drosocin, reference compound] (H-GKPRPYSPRPTSHPRPIRV-OH) | > 58 | 29 (≈ 63.8 µg/mL) | 58 (≈ 128 µg/mL) |  |  | 58 (≈ 128 µg/mL) | >58 | >58 | >58 |  |  |  |
| CC[C@H](C)[C@H](NC(=O)[C@H](CCCN)NC(=O)[C@H](CCCNC(=N)N)NC(=O)[C@@H]1CCCN1C(=O)[C@@H]1CCCN1C(=O)[C@H](CCCNC(=N)N)NC(=O)[C@@H]1CCCN1C(=O)[C@H](CCCNC(=N)N)NC(=O)[C@@H]1CCCN1C(=O)[C@H](CC(C)C)NC(=O)[C@H](Cc1ccc(O)cc1)NC(=O)[C@@H]1CCCN1C(=O)[C@@H]1CCCN1C(=O)[C@H](CCCCN)NC(=O)[C@H](CC(=O)O)NC(=O)[C@@H](N)C(C)C)C(=O)N[C@@H](Cc1ccc(O)cc1)C(=O)N[C@@H](CC(N)=O)C(=O)N[C@@H](CCCN)C(N)=O [Onc72] (H-VDKPPYLPRPRPPR[Orn]IYN[Orn]-NH2; N-terminus and C-terminus assumed) |  | 28 (≈ 64.6 µg/mL) | 56 (≈ 129 µg/mL) | 64 (≈ 27.8 µM) | 128 (≈ 55.5 µM) | 14 (≈ 32.3 µg/mL) | 28 to 56 | 14 to 28 | 56 (≈ 129 µg/mL) |  |  | MIC (mg/L) H99 48 h ([3]; H99 (serotype A, 48 h)): 64 to 128 mg/L; MIC (mg/L) KN99α 24 h [4, 10]: 32 to 64 mg/L |
| gu-LRPHPPRPRPIYVPRNNO-NH2 [Api88 rev] |  |  |  |  |  |  |  |  |  | 7.0 | 7.0 | MIC (μmol/L) H99 24 h [3, 14]: 7.0 µmol/L; MIC (μmol/L) H99 48 h [3, 15]: 14 µmol/L; MIC (μmol/L) KN99α 24 h [4, 14]: 7.0 µmol/L; MIC (μmol/L) KN99α 48 h [4, 15]: 14 µmol/L |
| gu-OIOIORPVYOPRPRPPHPRR-OH [Api813] |  |  |  | 8 | 8 |  |  |  |  | 3.1 | 3.1 | MIC (mg/L) H99 24 h [3, 14]: 4 mg/L; MIC (mg/L) H99 48 h [3, 15]: 4 to 8 mg/L; MIC (mg/L) KN99α 24 h [4, 14]: 4 to 8 mg/L; MIC (mg/L) KN99α 48 h [4, 15]: 8 mg/L |
| gu-OPNRYIRPRLPPHPNRPV-NH2 [Api88 scr] |  |  |  | 16 | 32 to 64 |  |  |  |  | 7.0 | 14 to 28 | MIC (μmol/L) H99 24 h [3, 14]: 28 µmol/L; MIC (μmol/L) H99 48 h [3, 15]: 56 µmol/L; MIC (μmol/L) KN99α 24 h [4, 14]: 28 µmol/L; MIC (μmol/L) KN99α 48 h [4, 15]: 56 µmol/L |
